The compound `CC1(C)CCC(C)(C)c2cc(C3(CC(=O)O)COc4cc(C(=O)O)ccc43)ccc21` (centres unmarked) returned a melting point of 268 °C.

For `CCCCCCC1(c2ccc3c(c2)C(C)(C)CCC3(C)C)COc2cc(C(=O)O)ccc21` (centres unmarked), the melting point came out at 137 °C.

For the origin of these results see patent US20040162339A1, “Heterocyclic biaryl compounds, pharmaceutical and cosmetic compositions containing them and uses thereof” (priority 1996, published 2004).
